Where a SMILES comes first, the peptide text is derived from it. [ ]: non-standard residue; d: D form. The star is where a group is joined. Palmitoyl = CCCCCCCCCCCCCCCC(=O)*

In this experiment the target is T1, APJ receptor (Homo sapiens, UniProt P35414).
T1 construct: expressed in transfected cells; host or cells: Human TRex cells (doxycycline-inducible)
T1 sequence (P35414 1-380): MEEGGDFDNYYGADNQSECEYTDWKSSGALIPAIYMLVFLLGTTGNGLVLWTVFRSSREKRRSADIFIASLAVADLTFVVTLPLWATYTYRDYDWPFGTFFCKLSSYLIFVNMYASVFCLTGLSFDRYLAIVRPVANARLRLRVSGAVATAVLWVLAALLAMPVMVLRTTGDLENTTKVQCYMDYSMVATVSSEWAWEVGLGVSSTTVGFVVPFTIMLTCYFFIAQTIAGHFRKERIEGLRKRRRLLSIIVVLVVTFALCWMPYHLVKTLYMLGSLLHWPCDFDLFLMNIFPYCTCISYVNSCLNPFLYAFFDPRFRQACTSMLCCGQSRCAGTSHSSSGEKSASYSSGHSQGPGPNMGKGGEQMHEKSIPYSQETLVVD
In words: HTRF cAMP assay, inhibition of NKH477 stimulated cAMP in Human TRex cells expressing APJ upon doxycycline induction (APJ-hTREX). The following applies: read-out: % IA (@ 300 nM). The format is cell-based. An excerpt: HTRF (homogeneous time resolved fluorescence) is a technology developed by Cisbio Bioassays based on TR-FRET (time-resolved fluorescence resonance energy transfer). Cisbio Bioassays has developed a wide selection of HTRF-based assays compatible with whole cells, thereby enabling functional assays to run under more physiological conditions. The IP-One assays are competitive immunoassays using cryptate-labeled anti-IP1 monoclonal antibody and d2-labeled IP1. IP1 is a relatively stable downstream metabolite of IP3, and accumulates in cells following Gq receptor activation.
cAMP kits based on a competitive immunoassay using cryptate-labeled anti-cAMP antibody and d2-labeled cAMP were used to assay the effects of APJ compounds of the present invention. […] Cells are treated with […] doxycycline and seeded in all white 96 well plates @ 40 k/well overnight.
As to `CCCCCCCCCCCCCCCC(=O)N[C@H](C(=O)N[C@@H](Cc1ccccc1)C(=O)N[C@@H](Cc1ccccc1)C(=O)N[C@@H](CCCNC(=N)N)C(=O)N[C@@H](CO)C(=O)N[C@@H](CO)C(=O)N[C@@H](CCC(=O)O)C(=O)N[C@H](CCCCN)C(=O)N[C@@H](CCCNC(=N)N)C(=O)N[C@@H](CCCNC(=N)N)C(=O)N[C@@H](CO)C(=O)N[C@@H](C)C(=O)N[C@@H](CC(=O)O)C(=O)N[C@H](C(=O)N[C@@H](Cc1ccccc1)C(=O)N[C@H](C(N)=O)[C@@H](C)CC)[C@@H](C)CC)[C@@H](C)O` [Compound 2] (Palmitoyl-TFFRSSE[dK]RRSADIFI-NH2), the percent intrinsic activity at 0.3 µM was found to be 59%.

As for `CCCCCCCCCCCCCCCC(=O)N[C@@H](Cc1c[nH]cn1)C(=O)N[C@H](C(=O)N[C@@H](Cc1ccccc1)C(=O)N[C@@H](CCCNC(=N)N)C(=O)N[C@@H](CO)C(=O)N[C@@H](CO)C(=O)N[C@@H](CCC(=O)O)C(=O)N[C@H](CCCCN)C(=O)N[C@@H](CCCNC(=N)N)C(=O)N[C@@H](CCCNC(=N)N)C(=O)N[C@@H](CO)C(=O)N[C@@H](C)C(=O)N[C@@H](CC(=O)O)C(=O)N[C@H](C(=O)N[C@@H](Cc1ccccc1)C(=O)N[C@H](C(N)=O)[C@@H](C)CC)[C@@H](C)CC)C(C)C` [Compound 7] (Palmitoyl-HVFRSSE[dK]RRSADIFI-NH2), the percent intrinsic activity at 0.3 µM worked out at 50%.

In the case of `CCCCCCCCCCCCCCCC(=O)N[C@H](C(=O)N[C@@H](Cc1c[nH]cn1)C(=O)N[C@@H](Cc1ccccc1)C(=O)N[C@@H](CCCNC(=N)N)C(=O)N[C@@H](CO)C(=O)N[C@@H](CO)C(=O)N[C@@H](CCC(=O)O)C(=O)N[C@H](CCCCN)C(=O)N[C@@H](CCCNC(=N)N)C(=O)N[C@@H](CCCNC(=N)N)C(=O)N[C@@H](CO)C(=O)N[C@@H](C)C(=O)N[C@@H](CC(=O)O)C(=O)N[C@H](C(=O)N[C@@H](Cc1ccccc1)C(=O)N[C@H](C(N)=O)[C@@H](C)CC)[C@@H](C)CC)[C@@H](C)O` [Compound 8] (Palmitoyl-THFRSSE[dK]RRSADIFI-NH2), the percent intrinsic activity at 0.3 µM worked out at 63%.

Regarding `CCCCCCCCCCCCCCCC(=O)N[C@H](C(=O)N[C@H](C(=O)N[C@@H](Cc1ccccc1)C(=O)N[C@@H](Cc1c[nH]cn1)C(=O)N[C@@H](CO)C(=O)N[C@@H](CO)C(=O)N[C@@H](CCC(=O)O)C(=O)N[C@H](CCCCN)C(=O)N[C@@H](CCCNC(=N)N)C(=O)N[C@@H](CCCNC(=N)N)C(=O)N[C@@H](CO)C(=O)N[C@@H](C)C(=O)N[C@@H](CC(=O)O)C(=O)N[C@H](C(=O)N[C@@H](Cc1ccccc1)C(=O)N[C@H](C(N)=O)[C@@H](C)CC)[C@@H](C)CC)C(C)C)[C@@H](C)O` [Compound 10] (Palmitoyl-TVFHSSE[dK]RRSADIFI-NH2), the percent intrinsic activity at 0.3 µM turned out to be 55%.

As to `CCCCCCCCCCCCCCCC(=O)N[C@H](C(=O)N[C@H](C(=O)N[C@@H](Cc1ccccc1)C(=O)N[C@@H](CCCNC(=N)N)C(=O)N[C@@H](CO)C(=O)N[C@@H](CO)C(=O)N[C@@H](Cc1c[nH]cn1)C(=O)N[C@H](CCCCN)C(=O)N[C@@H](CCCNC(=N)N)C(=O)N[C@@H](CCCNC(=N)N)C(=O)N[C@@H](CO)C(=O)N[C@@H](C)C(=O)N[C@@H](CC(=O)O)C(=O)N[C@H](C(=O)N[C@@H](Cc1ccccc1)C(=O)N[C@H](C(N)=O)[C@@H](C)CC)[C@@H](C)CC)C(C)C)[C@@H](C)O` [Compound 12] (Palmitoyl-TVFRSSH[dK]RRSADIFI-NH2), the percent intrinsic activity at 0.3 µM was 73%.

On to `CCCCCCCCCCCCCCCC(=O)N[C@H](C(=O)N[C@H](C(=O)N[C@@H](Cc1ccccc1)C(=O)N[C@@H](CCCNC(=N)N)C(=O)N[C@@H](CO)C(=O)N[C@@H](CO)C(=O)N[C@@H](CCC(=O)O)C(=O)N[C@H](CCCCN)C(=O)N[C@@H](Cc1c[nH]cn1)C(=O)N[C@@H](CCCNC(=N)N)C(=O)N[C@@H](CO)C(=O)N[C@@H](C)C(=O)N[C@@H](CC(=O)O)C(=O)N[C@H](C(=O)N[C@@H](Cc1ccccc1)C(=O)N[C@H](C(N)=O)[C@@H](C)CC)[C@@H](C)CC)C(C)C)[C@@H](C)O` [Compound 13] (Palmitoyl-TVFRSSE[dK]HRSADIFI-NH2), for which the percent intrinsic activity at 0.3 µM was 56%.

For `CCCCCCCCCCCCCCCC(=O)N[C@H](C(=O)N[C@H](C(=O)N[C@@H](Cc1ccccc1)C(=O)N[C@@H](CCC(N)=O)C(=O)N[C@@H](CO)C(=O)N[C@@H](CO)C(=O)N[C@@H](CCC(=O)O)C(=O)N[C@H](CCCCN)C(=O)N[C@@H](CCCNC(=N)N)C(=O)N[C@@H](CCCNC(=N)N)C(=O)N[C@@H](CO)C(=O)N[C@@H](C)C(=O)N[C@@H](CC(=O)O)C(=O)N[C@H](C(=O)N[C@@H](Cc1ccccc1)C(=O)N[C@H](C(N)=O)[C@@H](C)CC)[C@@H](C)CC)C(C)C)[C@@H](C)O` [Compound 22] (Palmitoyl-TVFQSSE[dK]RRSADIFI-NH2), the percent intrinsic activity at 0.3 µM worked out at 59%.

For `CCCCCCCCCCCCCCCC(=O)N[C@H](C(=O)N[C@H](C(=O)N[C@@H](Cc1ccccc1)C(=O)N[C@@H](CCCNC(=N)N)C(=O)N[C@@H](CCC(N)=O)C(=O)N[C@@H](CO)C(=O)N[C@@H](CCC(=O)O)C(=O)N[C@H](CCCCN)C(=O)N[C@@H](CCCNC(=N)N)C(=O)N[C@@H](CCCNC(=N)N)C(=O)N[C@@H](CO)C(=O)N[C@@H](C)C(=O)N[C@@H](CC(=O)O)C(=O)N[C@H](C(=O)N[C@@H](Cc1ccccc1)C(=O)N[C@H](C(N)=O)[C@@H](C)CC)[C@@H](C)CC)C(C)C)[C@@H](C)O` [Compound 23] (Palmitoyl-TVFRQSE[dK]RRSADIFI-NH2), the percent intrinsic activity at 0.3 µM was 55%.

In the case of `CCCCCCCCCCCCCCCC(=O)N[C@H](C(=O)N[C@H](C(=O)N[C@@H](Cc1ccccc1)C(=O)N[C@@H](CCCNC(=N)N)C(=O)N[C@@H](CO)C(=O)N[C@@H](CO)C(=O)N[C@@H](CCC(N)=O)C(=O)N[C@H](CCCCN)C(=O)N[C@@H](CCCNC(=N)N)C(=O)N[C@@H](CCCNC(=N)N)C(=O)N[C@@H](CO)C(=O)N[C@@H](C)C(=O)N[C@@H](CC(=O)O)C(=O)N[C@H](C(=O)N[C@@H](Cc1ccccc1)C(=O)N[C@H](C(N)=O)[C@@H](C)CC)[C@@H](C)CC)C(C)C)[C@@H](C)O` [Compound 25] (Palmitoyl-TVFRSSQ[dK]RRSADIFI-NH2), the percent intrinsic activity at 0.3 µM was found to be 45%.

Consider `CCCCCCCCCCCCCCCC(=O)N[C@H](C(=O)N[C@@H](CC(=O)O)C(=O)N[C@@H](Cc1ccccc1)C(=O)N[C@@H](CCCNC(=N)N)C(=O)N[C@@H](CO)C(=O)N[C@@H](CO)C(=O)N[C@@H](CCC(=O)O)C(=O)N[C@H](CCCCN)C(=O)N[C@@H](CCCNC(=N)N)C(=O)N[C@@H](CCCNC(=N)N)C(=O)N[C@@H](CO)C(=O)N[C@@H](C)C(=O)N[C@@H](CC(=O)O)C(=O)N[C@H](C(=O)N[C@@H](Cc1ccccc1)C(=O)N[C@H](C(N)=O)[C@@H](C)CC)[C@@H](C)CC)[C@@H](C)O` [Compound 34] (Palmitoyl-TDFRSSE[dK]RRSADIFI-NH2), for which the percent intrinsic activity at 0.3 µM turned out to be 44%.

Consider `CCCCCCCCCCCCCCCC(=O)N[C@H](C(=O)N[C@H](C(=O)N[C@@H](Cc1ccccc1)C(=O)N[C@@H](CCCNC(=N)N)C(=O)N[C@@H](CC(=O)O)C(=O)N[C@@H](CO)C(=O)N[C@@H](CCC(=O)O)C(=O)N[C@H](CCCCN)C(=O)N[C@@H](CCCNC(=N)N)C(=O)N[C@@H](CCCNC(=N)N)C(=O)N[C@@H](CO)C(=O)N[C@@H](C)C(=O)N[C@@H](CC(=O)O)C(=O)N[C@H](C(=O)N[C@@H](Cc1ccccc1)C(=O)N[C@H](C(N)=O)[C@@H](C)CC)[C@@H](C)CC)C(C)C)[C@@H](C)O` [Compound 36] (Palmitoyl-TVFRDSE[dK]RRSADIFI-NH2), for which the percent intrinsic activity at 0.3 µM came out at 49%.

As to `CCCCCCCCCCCCCCCC(=O)N[C@H](C(=O)N[C@H](C(=O)N[C@@H](Cc1ccccc1)C(=O)N[C@@H](CCCNC(=N)N)C(=O)N[C@@H](CO)C(=O)N[C@@H](CC(=O)O)C(=O)N[C@@H](CCC(=O)O)C(=O)N[C@H](CCCCN)C(=O)N[C@@H](CCCNC(=N)N)C(=O)N[C@@H](CCCNC(=N)N)C(=O)N[C@@H](CO)C(=O)N[C@@H](C)C(=O)N[C@@H](CC(=O)O)C(=O)N[C@H](C(=O)N[C@@H](Cc1ccccc1)C(=O)N[C@H](C(N)=O)[C@@H](C)CC)[C@@H](C)CC)C(C)C)[C@@H](C)O` [Compound 37] (Palmitoyl-TVFRSDE[dK]RRSADIFI-NH2), the percent intrinsic activity at 0.3 µM was determined as 50%.

In the case of `CCCCCCCCCCCCCCCC(=O)N1CCC[C@H]1C(=O)N[C@H](C(=O)N[C@@H](Cc1ccccc1)C(=O)N[C@@H](CCCNC(=N)N)C(=O)N[C@@H](CO)C(=O)N[C@@H](CO)C(=O)N[C@@H](CCC(=O)O)C(=O)N[C@H](CCCCN)C(=O)N[C@@H](CCCNC(=N)N)C(=O)N[C@@H](CCCNC(=N)N)C(=O)N[C@@H](CO)C(=O)N[C@@H](C)C(=O)N[C@@H](CC(=O)O)C(=O)N[C@H](C(=O)N[C@@H](Cc1ccccc1)C(=O)N[C@H](C(N)=O)[C@@H](C)CC)[C@@H](C)CC)C(C)C` [Compound 42] (Palmitoyl-PVFRSSE[dK]RRSADIFI-NH2), the percent intrinsic activity at 0.3 µM came out at 83%.

Source of the values: patent publication US20150011466A1, “APJ Receptor Compounds” (priority 2012, published 2015).
